Patent US6930227B1 (Mitsui Chemicals, Inc., priority 1999, dated 2005)

Key:
[1] = target: T1, N-methyl transferase (Camellia sinensis, UniProt Q9FZN8); experiment: N-methyl transferase measurement with enzyme solution from Escherichia coli expressing the gene (14C-caffeine extraction); format: biochemical; settings: for production of methylated product from the added substrate: substrate added instead of paraxanthine, same reaction solution
T1 construct: made in house; host or cells: Escherichia coli BL21 (DE3), vector pET23d
T1 sequence (Q9FZN8 14-369 limits assumed): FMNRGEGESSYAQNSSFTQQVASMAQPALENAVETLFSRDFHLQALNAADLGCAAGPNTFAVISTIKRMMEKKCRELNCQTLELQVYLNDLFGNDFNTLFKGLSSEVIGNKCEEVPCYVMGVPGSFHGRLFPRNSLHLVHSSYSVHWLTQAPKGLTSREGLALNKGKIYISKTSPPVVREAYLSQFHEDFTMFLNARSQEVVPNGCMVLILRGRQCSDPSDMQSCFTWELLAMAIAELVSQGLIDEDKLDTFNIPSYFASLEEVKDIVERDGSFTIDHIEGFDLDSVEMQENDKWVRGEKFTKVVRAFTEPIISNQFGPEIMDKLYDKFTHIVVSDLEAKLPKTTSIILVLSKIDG
Protocol: Separately, a fragment obtained by treating the isolated N-methyl transferase gene DNA fragment with NcoI and EcoRI was inserted into a pET23d vector. Then, the above PCR product was inserted into the NcoI site of this pET23d vector to construct an N-methyl transferase expression plasmid. This plasmid was transformed to Escherichia coli BL21 (DE3). After the obtained Escherichia coli was cultured at 37° C. for 2 hours, IPTG was added thereto so as to be 0.3 mM in final concentration, and 3-hour culture was further carried out at 30° C. After culturing had been completed, cells were collected and the cells from 3 ml culture solution were subjected to supersonic treatment for 1 minute with interval in 0.2 ml 10 mM Tris-hydrochloric acid buffer solution (pH 7.5), 0.1 M NaCl, 1 mM EDTA-Na2. Then, centrifugation was carried out at 14,000 rpm for 10 minutes, and the obtained supernatant was employed as an enzyme solution.
The reaction solution for N-methyl transferase measurement was prepared as follows. […] Reaction was carried out at 27° C. for 10 minutes, the obtained ^14C-caffeine was extracted by adding 1 ml chloroform thereto and the radiation activity of a chloroform layer was measured. As a control, xanthosine was added to the reaction solution instead of paraxanthine or paraxanthine was removed.

[2] = target: T2, N-methyl transferase (Camellia sinensis, UniProt Q9FZN8); format: biochemical
T2 sequence (Q9FZN8 1-369): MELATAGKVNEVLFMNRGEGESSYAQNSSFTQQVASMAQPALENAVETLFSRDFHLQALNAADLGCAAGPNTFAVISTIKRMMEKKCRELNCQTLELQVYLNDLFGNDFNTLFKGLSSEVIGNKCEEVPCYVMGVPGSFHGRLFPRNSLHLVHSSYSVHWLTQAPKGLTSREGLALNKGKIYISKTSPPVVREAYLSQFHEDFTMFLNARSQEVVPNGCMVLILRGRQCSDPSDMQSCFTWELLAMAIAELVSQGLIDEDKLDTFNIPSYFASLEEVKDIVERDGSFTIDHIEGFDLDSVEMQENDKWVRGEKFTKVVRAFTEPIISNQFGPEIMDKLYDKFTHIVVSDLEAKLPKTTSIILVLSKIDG
Protocol: Inhibitor: SAH (S-adenosyl homocysteine)
The reaction solution for N-methyl transferase measurement was prepared as follows. […] Reaction was carried out at 27° C. for 10 minutes, the obtained ^14C-caffeine was extracted by adding 1 ml chloroform thereto and the radiation activity of a chloroform layer was measured.

[3] = substrate: Cn1c(=O)[nH]c2ncn(C)c2c1=O; experiment: purified protein, by the assay type; settings: other: substrate of the N-methyl transferase; pH 8.5; 27.0 °C

Molecule: Cn1cnc2[nH]c(=O)[nH]c(=O)c21 [7-methyl xanthine]
- production of methylated product from the added substrate [1]: production of theobromine was observed

Molecule: Nc1ncnc2c1ncn2[C@@H]1O[C@H](CSCC[C@H](N)C(=O)O)[C@@H](O)[C@H]1O [SAH, S-adenosyl homocysteine]
- Inhibitor ([2]; inhibitor of the N-methyl transferase): Inhibitor

Molecule: C[S+](CC[C@H](N)C(=O)[O-])C[C@H]1O[C@@H](n2cnc3c(N)ncnc32)[C@H](O)[C@@H]1O (some centres unmarked) [SAM, S-adenosyl methionine]
- Km ([2]; substrate of the N-methyl transferase): 21 µM

Molecule: Cn1c(=O)[nH]c2ncn(C)c2c1=O [paraxanthine]
- caffeine produced ([1]; 0.2 mM substrate, 4 μM S-adenosyl methionine, 10 μl enzyme solution, pH 8.5, 27° C., 10 minutes): 1.56 pmol

Molecule: Cn1cnc2c1c(=O)[nH]c(=O)n2C [theobromine]
- production of methylated product from the added substrate [1]: production of caffeine was observed

Molecule: O=c1[nH]c(=O)c2ncn([C@@H]3O[C@H](CO)[C@@H](O)[C@H]3O)c2[nH]1 [xanthosine]
- production of methylated product from the added substrate [1]: caffeine was produced only when paraxanthine was added

B1: N-methyl transferase (Camellia sinensis) (protein)
chain: MELATAGKVNEVLFMNRGEGESSYAQNSSFTQQVASMAQPALENAVETLFSRDFHLQALNAADLGCAAGPNTFAVISTIKRMMEKKCRELNCQTLELQVYLNDLFGNDFNTLFKGLSSEVIGNKCEEVPCYVMGVPGSFHGRLFPRNSLHLVHSSYSVHWLTQAPKGLTSREGLALNKGKIYISKTSPPVVREAYLSQFHEDFTMFLNARSQEVVPNGCMVLILRGRQCSDPSDMQSCFTWELLAMAIAELVSQGLIDEDKLDTFNIPSYFASLEEVKDIVERDGSFTIDHIEGFDLDSVEMQENDKWVRGEKFTKVVRAFTEPIISNQFGPEIMDKLYDKFTHIVVSDLEAKLPKTTSIILVLSKIDG
- Km [3]: 24 µM

B2: N-methyl transferase: polypeptide of SEQ ID NO: 1 with 7-methyl xanthine N3, theobromine N1 and paraxanthine N3 methyl transferase activities (protein)
chain: FMNRGEGESSYAQNSSFTQQVASMAQPALENAVETLFSRDFHLQALNAADLGCAAGPNTFAVISTIKRMMEKKCRELNCQTLELQVYLNDLFGNDFNTLFKGLSSEVIGNKCEEVPCYVMGVPGSFHGRLFPRNSLHLVHSSYSVHWLTQAPKGLTSREGLALNKGKIYISKTSPPVVREAYLSQFHEDFTMFLNARSQEVVPNGCMVLILRGRQCSDPSDMQSCFTWELLAMAIAELVSQGLIDEDKLDTFNIPSYFASLEEVKDIVERDGSFTIDHIEGFDLDSVEMQENDKWVRGEKFTKVVRAFTEPIISNQFGPEIMDKLYDKFTHIVVSDLEAKLPKTTSIILVLSKIDG
- Optimum pH [2]: 8.5
